This assay has as its system α-synuclein protein and mRNA in substantia nigra. The assay is described as follows: placebo-controlled trial in wild-type mice, Snca expression in substantia nigra. Format: in vivo, mouse. The procedure:
Twenty C57BL/6J male mice (8 weeks old) (Jackson Laboratory, Bar Harbor Me.) were used for the placebo-controlled trial. Mice were exposed to a 12-hour light and 12-hour dark cycle, maintained at a constant temperature of 22° C., and were cared for in accordance with the National Institutes of Health Guide for the Care and Use of Laboratory Animals. Clenbuterol was purchased from Sigma (St. Louis, Mo.). Clenbuterol (10 mg/kg, injection volume 10 ml/kg) dissolved in saline was administered to mice (N=10) intraperitoneally. Saline was administered as a vehicle treatment (N=10). Mice were euthanized by CO224 hours post-injection. Brains were removed and snap frozen immediately in dry ice. Further dissections were performed on the frozen tissue to obtain substantia nigra regions. Tissue was then stored at −80° C. until mRNA or protein extraction was performed.
Total RNA from flash-frozen mice brain tissue, rodent primary cells, human neuroblastoma cells and iPSC-derived neuronal cells was isolated using TRIzol® (Life Technologies) following the manufacturer's protocol. RNA concentration was measured using NanoDrop spectrophotometer (Thermo Fisher Scientific, Wilmington, De.). 2 μg of total RNA was reverse transcribed into cDNA using the High Capacity cDNA Reverse Transcription Kit from Applied Biosystems. Quantitative PCR was performed using TaqMan Universal PCR Master Mix (Applied Biosystems) on an ABI 7900HT instrument (Applied Biosystems) as described previously (31). […] Expression values were analyzed using the comparative threshold cycle method (31).
Protein lysis buffer containing 320 mM sucrose, 5 mM NaF, 1 mM Na3VO4, 10 mM Tris (pH 7.4), 1 mM EGTA, and 1 mM EDTA was used for mice brain tissue lysis. […] Total protein concentrations were determined by BCA assay (Thermo Scientific) according to the manufacturer's instructions. Total α-synuclein was quantified using an α-synuclein-specific sandwich ELISA. […]

The mark [1] stands for this setting: 10 mg/kg intraperitoneal, 24 hours, vs saline, n=10 per group.

As to `CC(C)(C)NCC(O)c1cc(Cl)c(N)c(Cl)c1` (stereo not drawn) [clenbuterol], under setting [1], the “endogenous α-synuclein mRNA in substantia nigra” value is “lowered” and the “endogenous α-synuclein protein in substantia nigra” value is listed as “lowered”. Where the note is “anti-α-synuclein antibodies 2F12 and C-20”, the “α-synuclein protein in substantia nigra by Western blotting” value is “confirmed by Western blotting”.

Source of the values: patent US20210308077A1, “COMBINATIONS INCLUDING BETA-ADRENORECEPTOR AGONISTS FOR TREATMENT OF PARKINSON`S DISEASE AND MOVEMENT DISORDERS” (The Brigham and Women`s Hospital, Inc., priority 2017, published 2021).
